# Where “and” joins values, the source holds several entries; their conditions need not be identical. Identical values can stand only once. Like-named read-outs stand apart in the source and are kept apart here. Marks after values point to notes of the source that are not given here.
# Columns and labels:
# [1] = Solubility (saturation concentration) in deionised water and PBS pH 7.4, HPLC; conditions: for Solubility in Phosphate Buffer pH = 7.4: PBS pH 7.4, 32 °C; for Solubility in Water: 25 °C
# [2] = Solubility in organic solvents by modified Vogel's method; conditions: 25 °C
# [3] = Thermal stability (TG/DTG): decomposition onset and maximum mass-loss rate temperature
# Protocol: In Figure 5, the thermal stability of ibuprofen and amino acid isopropyl ester ibuprofenates was determined and compared. All TG, DTG, and c-DTA curves are in the Supplementary Materials (Figures S87–S100). The decomposition onset temperature (Tonset) and the temperature of the maximum rate of mass loss (Tmax) were determined.
# [4] = In vitro skin permeation, Franz diffusion cells; conditions: for Q%24 h, the percentage of the applied dose permeated after 24 h / Cumulative Permeation Mass / LT, lag time: n = 3; for Q%24 h, the percentage of the applied dose permeated after 24 h / Cumulative Permeation Mass: 24 h; for EF, enhancement factor: relative to IBU; for JSS, steady-state flux: saturated solution in PBS pH 7.4, n = 3
# [5] = n-octanol-water partition coefficient, shake flask method; conditions: shake flask, 25 °C
# [6] = 24 h penetration, n = 3
# [7] = saturated solution in PBS pH 7.4, mass of compound
# [8] = saturated solution in PBS pH 7.4, mass of ibuprofen
Structure (SMILES),Solubility in Phosphate Buffer pH = 7.4 ([1]; g of active compound (IBU)) [g IBU∙dm^−3],Solubility in Phosphate Buffer pH = 7.4 ([1]; g of compound) [g∙dm^−3],Solubility in Water ([1]; g of active compound (IBU)) [g IBU∙dm^−3],Solubility in Water ([1]; g of compound) [g∙dm^−3],Solubility in DMSO [2],Solubility in chloroform [2],Solubility in dichloromethane [2],Solubility in diethyl ether [2],Solubility in ethanol [2],Solubility in ethyl acetate [2],Solubility in n-hexane [2],Solubility in toluene [2],"Q%24 h, the percentage of the applied dose permeated after 24 h [4] [%]","Cumulative Permeation Mass [4, 7]","Cumulative Permeation Mass [4, 8]","LT, lag time [4] [h]","EF, enhancement factor [4]","JSS, steady-state flux [4]",Log P (n-octanol-water partition coefficient) [5],"Tonset, the onset temperature of the thermal degradation [3] [°C]",also measured
"CC(C)Cc1ccc(C(C)C(=O)O)cc1.CC(C)OC(=O)[C@@H](N)CCCCN [[L-LysOiPr][IBU], L-lysine isopropyl ester ibuprofenate]",4.779 ± 0.061,9.140 ± 0.117,5.047 ± 0.060,9.6534 ± 0.115,+ (soluble >100 mg cm^−3),− (insoluble <33 mg cm^−3),− (insoluble <33 mg cm^−3),− (insoluble <33 mg cm^−3),+ (soluble >100 mg cm^−3),− (insoluble <33 mg cm^−3),− (insoluble <33 mg cm^−3),− (insoluble <33 mg cm^−3),11.062 ± 0.475,1011.106 ± 43.448 ^b µg·cm^−2,528.643 ± 22.716 µg IBU·cm^−2 and 528.643 ± 22.716 ^b µg IBU·cm^−2,1.423 ± 0.130,1.49,56.801 ± 4.129 µg IBU cm^−2 h^−1,–,–,"Tonset, the onset temperature of the thermal degradation ([3]; TG): 177.9 °C"
"CC(C)Cc1ccc(C(C)C(=O)O)cc1.CC(C)OC(=O)[C@@H](N)Cc1ccccc1 [[L-PheOiPr][IBU], L-phenylalanine isopropyl ester ibuprofenate]",1.017 ± 0.001,2.039 ± 0.001,0.297 ± 0.024,0.595 ± 0.048,+ (soluble >100 mg cm^−3),+ (soluble >100 mg cm^−3),+ (soluble >100 mg cm^−3),+/− (partially soluble 33–100 mg cm^−3),+ (soluble >100 mg cm^−3),+ (soluble >100 mg cm^−3),− (insoluble <33 mg cm^−3),+ (soluble >100 mg cm^−3),35.912 ± 0.539,711.866 ± 5.956 ^b µg·cm^−2,355.088 ± 5.482 ^b µg IBU·cm^−2,1.368 ± 0.091,4.85,48.578 ± 4.836 µg IBU cm^−2 h^−1,2.207 ± 0.026,175.8,"KP, times higher than for ibuprofen [4]: 6.839 times"
"CC(C)Cc1ccc(C(C)C(=O)O)cc1.CC(C)OC(=O)[C@H](C)N [[L-AlaOiPr][IBU], L-alanine isopropyl ester ibuprofenate]",5.159 ± 0.015,8.440 ± 0.024,2.463 ± 0.008,4.030 ± 0.014,+ (soluble >100 mg cm^−3),+ (soluble >100 mg cm^−3),+ (soluble >100 mg cm^−3),+/− (partially soluble 33–100 mg cm^−3),+ (soluble >100 mg cm^−3),+ (soluble >100 mg cm^−3),− (insoluble <33 mg cm^−3),+ (soluble >100 mg cm^−3),6.786 ± 0.214,572.719 ± 18.05 ^b µg·cm^−2,350.100 ± 11.039 ^b µg IBU·cm^−2,1.691 ± 0.041,0.92,44.510 ± 0.861 µg IBU cm^−2 h^−1,0.719 ± 0.004,78.3,–
"CC(C)Cc1ccc(C(C)C(=O)O)cc1.CC(C)OC(=O)[C@@H](N)CO [[L-SerOiPr][IBU], L-serine isopropyl ester ibuprofenate]",–,–,–,–,–,–,–,–,–,+/− (partially soluble 33–100 mg cm^−3),–,− (insoluble <33 mg cm^−3),11.035 ± 0.500,–,–,1.160 ± 0.081,1.49,66.106 µg IBU cm^−2 h^−1 and 66.106 ± 2.925 µg IBU cm^−2 h^−1,0.775 ± 0.008,–,"Tonset, the onset temperature of the thermal degradation ([3]; TG): 139.2 °C; Accumulation in the skin [6]: 407.652 ± 74.170 µg IBU g^−1"
"CC(C)Cc1ccc(C(C)C(=O)O)cc1.CC(C)OC(=O)[C@@H](N)[C@@H](C)O [[L-ThrOiPr][IBU], L-threonine isopropyl ester ibuprofenate]",–,–,–,–,–,–,–,–,–,–,–,–,11.294 ± 0.505,714.248 ± 38.838 ^b µg·cm^−2,400.942 ± 17.921 ^b µg IBU·cm^−2,1.339 ± 0.177,1.52,59.631 ± 6.900 µg IBU cm^−2 h^−1,0.998 ± 0.001,129.6,Accumulation in the skin [6]: 621.866 ± 112.163 µg IBU g^−1
"CC(C)Cc1ccc(C(C)C(=O)O)cc1.CC(C)OC(=O)[C@@H](N)CS [[L-CysOiPr][IBU], L-cysteine isopropyl ester ibuprofenate]",2.440 ± 0.287,4.437 ± 0.287,1.143 ± 0.253,2.048 ± 0.253,+ (soluble >100 mg cm^−3),+ (soluble >100 mg cm^−3),+ (soluble >100 mg cm^−3),–,+ (soluble >100 mg cm^−3),+/− (partially soluble 33–100 mg cm^−3),− (insoluble <33 mg cm^−3),–,12.210 ± 1.119,541.776 ± 49.664 ^b µg·cm^−2,305.756 ± 28.028 ^b µg IBU·cm^−2,1.873 ± 0.104,1.65,28.858 ± 2.984 µg IBU cm^−2 h^−1,1.430 ± 0.005,190.2,–
"CC(C)Cc1ccc(C(C)C(=O)O)cc1.CC(C)Cc1ccc(C(C)C(=O)O)cc1.CC(C)OC(=O)[C@@H](N)CCCCN [[L-LysOiPr][IBU]2, L-lysine isopropyl ester bis(ibuprofenate)]",2.071 ± 0.118,6.032 ± 0.342,2.012 ± 0.110,5.861 ± 0.322,+ (soluble >100 mg cm^−3),− (insoluble <33 mg cm^−3),− (insoluble <33 mg cm^−3),− (insoluble <33 mg cm^−3),+ (soluble >100 mg cm^−3),− (insoluble <33 mg cm^−3),− (insoluble <33 mg cm^−3),− (insoluble <33 mg cm^−3),10.624 ± 0.474,640.825 ± 28.577 ^b µg·cm^−2,220.016 ± 9.811 ^b µg IBU·cm^−2,1.333 ± 0.258,1.43,24.852 ± 2.857 µg IBU cm^−2 h^−1,–,–,"Tonset, the onset temperature of the thermal degradation ([3]; TG): 183.7 °C; Accumulation in the skin [6]: 392.593 ± 111.434 µg IBU g^−1"
"CC(C)C[C@H](N)C(=O)OC(C)C.CC(C)Cc1ccc(C(C)C(=O)O)cc1 [[L-LeuOiPr][IBU], L-leucine isopropyl ester ibuprofenate]",2.084 ± 0.002,3.834 ± 0.003,0.682 ± 0.038,1.255 ± 0.070,+ (soluble >100 mg cm^−3),+ (soluble >100 mg cm^−3),+ (soluble >100 mg cm^−3),+/− (partially soluble 33–100 mg cm^−3),+ (soluble >100 mg cm^−3),+ (soluble >100 mg cm^−3),− (insoluble <33 mg cm^−3),+ (soluble >100 mg cm^−3),11.077 ± 0.236,424.683 ± 9.060 ^b µg·cm^−2,230.824 ± 4.924 ^b µg IBU·cm^−2,1.742 ± 0.061,1.50,38.502 ± 1.553 µg IBU cm^−2 h^−1,1.391 ± 0.001,109.5,–

# Reference: article PMC9025941, “Influence of the Type of Amino Acid on the Permeability and Properties of Ibuprofenates of Isopropyl Amino Acid Esters” (International Journal of Molecular Sciences, 2022)
